Experiments:
Assay in all cases: cells
ES3 = type: functional, cell-based, Homo sapiens; conditions: Homo sapiens, ES3;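 note: growth inhibition of ES3 cells, read out with a cell viability assay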
Description: SANGER: Inhibition of human ES3 cell growth in a cell viability assay.

TE-5 = type: functional, cell-based, Homo sapiens; conditions: Homo sapiens, TE-5;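 note: inhibition of cell growth, read out by a cell viability assay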
Description: SANGER: Inhibition of human TE-5 cell growth in a cell viability assay.

SK-N-DZ = type: functional, cell-based, Homo sapiens; conditions: Homo sapiens, SK-N-DZ; read-out: IC50;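 note: growth inhibition of the cancer cell line, read out through a viability assay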
Description: SANGER: Inhibition of human SK-N-DZ cell growth in a cell viability assay.

MLMA = type: functional, cell-based, Homo sapiens; conditions: Homo sapiens, MLMA;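 note: growth inhibition of MLMA cells (human), determined through a cell viability readout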
Description: SANGER: Inhibition of human MLMA cell growth in a cell viability assay.

HAL-01 = type: functional, cell-based, Homo sapiens; conditions: Homo sapiens, HAL-01;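 note: growth inhibition of human HAL-01 cells, read out with a cell viability assay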
Description: SANGER: Inhibition of human HAL-01 cell growth in a cell viability assay.

SK-LMS-1 = type: functional, cell-based, Homo sapiens; conditions: Homo sapiens, SK-LMS-1;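 note: growth inhibition of human SK-LMS-1 cells, read out with a cell viability assay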
Description: SANGER: Inhibition of human SK-LMS-1 cell growth in a cell viability assay.

MOLT-4 = type: functional, cell-based, Homo sapiens; conditions: Homo sapiens, MOLT-4;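 note: growth inhibition of MOLT-4 cells, determined with a cell viability readout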
Description: SANGER: Inhibition of human MOLT-4 cell growth in a cell viability assay.

EW-18 = type: functional, cell-based, Homo sapiens; conditions: Homo sapiens, EW-18; read-out: IC50;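 note: growth inhibition of EW-18 cells, read out by a cell viability assay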
Description: SANGER: Inhibition of human EW-18 cell growth in a cell viability assay.

GI-1 = type: functional, cell-based, Homo sapiens; conditions: Homo sapiens, GI-1;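 note: growth inhibition of human GI-1 cells, measured with a cell viability readout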
Description: SANGER: Inhibition of human GI-1 cell growth in a cell viability assay.

JAR = type: functional, cell-based, Homo sapiens; conditions: Homo sapiens, JAR;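 note: growth inhibition of human JAR cells determined with a cell viability assay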
Description: SANGER: Inhibition of human JAR cell growth in a cell viability assay.

NCI-H226 = type: functional, cell-based, Homo sapiens; conditions: Homo sapiens, NCI-H226;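 note: cell viability read-out used to gauge growth inhibition of the cells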
Description: SANGER: Inhibition of human NCI-H226 cell growth in a cell viability assay.

SK-PN-DW = type: functional, cell-based, Homo sapiens; conditions: Homo sapiens, SK-PN-DW;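 note: growth inhibition measured with a viability assay on these cells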
Description: SANGER: Inhibition of human SK-PN-DW cell growth in a cell viability assay.

C2BBe1 = type: functional, cell-based, Homo sapiens; conditions: Homo sapiens, C2BBe1;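 note: growth inhibition of C2BBe1 cells, read out through a viability assay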
Description: SANGER: Inhibition of human C2BBe1 cell growth in a cell viability assay.

TE-1 = type: functional, cell-based, Homo sapiens; conditions: Homo sapiens, TE-1;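 note: growth inhibition of the human TE-1 cell line, read out with a cell viability assay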
Description: SANGER: Inhibition of human TE-1 cell growth in a cell viability assay.

A101D = type: functional, cell-based, Homo sapiens; conditions: Homo sapiens, A101D;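 note: growth inhibition of the cell line, measured with a viability assay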
Description: SANGER: Inhibition of human A101D cell growth in a cell viability assay.

KG-1 = type: functional, cell-based, Homo sapiens; conditions: Homo sapiens, KG-1;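 note: growth inhibition of KG-1 cells, read out by a cell viability assay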
Description: SANGER: Inhibition of human KG-1 cell growth in a cell viability assay.

ACN = type: functional, cell-based, Homo sapiens; conditions: Homo sapiens, ACN;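 note: growth inhibition of the human ACN cell line, read out via cell viability testing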
Description: SANGER: Inhibition of human ACN cell growth in a cell viability assay.

SJSA-1 = type: functional, cell-based, Homo sapiens; conditions: Homo sapiens, SJSA-1;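 note: growth inhibition of human SJSA-1 cells, read out through a cell viability measurement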
Description: SANGER: Inhibition of human SJSA-1 cell growth in a cell viability assay.

LS-513 = type: functional, cell-based, Homo sapiens; conditions: Homo sapiens, LS-513
Description: SANGER: Inhibition of human LS-513 cell growth in a cell viability assay.

MPP-89 = type: functional, cell-based, Homo sapiens; conditions: Homo sapiens, MPP-89;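 note: growth inhibition of human MPP-89 cells, read out with a cell viability assay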
Description: SANGER: Inhibition of human MPP-89 cell growth in a cell viability assay.

HD-MY-Z = type: functional, cell-based, Homo sapiens; conditions: Homo sapiens, HD-MY-Z;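 note: growth inhibition of HD-MY-Z cells, read out with a cell viability assay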
Description: SANGER: Inhibition of human HD-MY-Z cell growth in a cell viability assay.

NCI-H23 = type: functional, cell-based, Homo sapiens; conditions: Homo sapiens, NCI-H23;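 note: cell viability assay measuring growth inhibition of NCI-H23 cells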
Description: SANGER: Inhibition of human NCI-H23 cell growth in a cell viability assay.

LOX IMVI = type: functional, cell-based, Homo sapiens; conditions: Homo sapiens, LOX IMVI
Description: SANGER: Inhibition of human LOXIMVI cell growth in a cell viability assay.

RH-1 = type: functional, cell-based, Homo sapiens; conditions: Homo sapiens, RH-1;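 note: growth inhibition of human RH-1 cells, read out with a cell viability assay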
Description: SANGER: Inhibition of human RH-1 cell growth in a cell viability assay.

BE-13 = type: functional, cell-based, Homo sapiens; conditions: Homo sapiens, BE-13;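 note: growth inhibition of human BE-13 cells, measured with a cell viability assay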
Description: SANGER: Inhibition of human BE-13 cell growth in a cell viability assay.

QIMR-WIL = type: functional, cell-based, Homo sapiens; conditions: Homo sapiens, QIMR-WIL;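 note: growth inhibition of QIMR-WIL cells, read out with a cell viability assay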
Description: SANGER: Inhibition of human QIMR-WIL cell growth in a cell viability assay.

MFM-223 = type: functional, cell-based, Homo sapiens; conditions: Homo sapiens, MFM-223
Description: SANGER: Inhibition of human MFM-223 cell growth in a cell viability assay.

BV-173 = type: functional, cell-based, Homo sapiens; conditions: Homo sapiens, BV-173
Description: SANGER: Inhibition of human BV-173 cell growth in a cell viability assay.

IA-LM = type: functional, cell-based; conditions: Homo sapiens;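 note: cell viability assay measuring growth inhibition of human IA-LM cells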
Description: SANGER: Inhibition of human IA-LM cell growth in a cell viability assay.

MZ7-mel = type: functional, cell-based, Homo sapiens; conditions: Homo sapiens, MZ7-mel;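 note: growth inhibition of human MZ7-mel cells, measured by a cell viability assay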
Description: SANGER: Inhibition of human MZ7-mel cell growth in a cell viability assay.

NCI-H1838 = type: functional, cell-based, Homo sapiens; conditions: Homo sapiens, NCI-H1838;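 note: growth inhibition of NCI-H1838 cells, determined with a cell viability readout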
Description: SANGER: Inhibition of human NCI-H1838 cell growth in a cell viability assay.

NH-12 = type: functional, cell-based, Homo sapiens; conditions: Homo sapiens, NH-12;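 note: growth inhibition of NH-12 cells, read out with a cell viability assay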
Description: SANGER: Inhibition of human NH-12 cell growth in a cell viability assay.

KE-37 = type: functional, cell-based, Homo sapiens; conditions: Homo sapiens, KE-37;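 note: growth inhibition of KE-37 cells, read out with a cell viability assay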
Description: SANGER: Inhibition of human KE-37 cell growth in a cell viability assay.

LAMA-84 = type: functional, cell-based, Homo sapiens; conditions: Homo sapiens, LAMA-84;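 note: growth inhibition of LAMA-84 cells, read out with a cell viability assay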
Description: SANGER: Inhibition of human LAMA-84 cell growth in a cell viability assay.

SW 962 = type: functional, cell-based, Homo sapiens; conditions: Homo sapiens, SW 962;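 note: growth inhibition of human SW962 cells, read out by a cell viability assay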
Description: SANGER: Inhibition of human SW962 cell growth in a cell viability assay.

KLE = type: functional, cell-based; conditions: Homo sapiens;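 note: growth inhibition of human KLE cells, read out with a cell viability assay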
Description: SANGER: Inhibition of human KLE cell growth in a cell viability assay.

SF-126 = type: functional, cell-based, Homo sapiens; conditions: Homo sapiens, SF-126;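 note: growth inhibition of human SF126 cells, read out with a cell viability assay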
Description: SANGER: Inhibition of human SF126 cell growth in a cell viability assay.

Lu-65 = type: functional, cell-based, Homo sapiens; conditions: Homo sapiens, Lu-65;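 note: growth inhibition of Lu-65 cancer cells, read out by a cell viability assay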
Description: SANGER: Inhibition of human LU-65 cell growth in a cell viability assay.

NB13 = type: functional, cell-based, Homo sapiens; conditions: Homo sapiens, NB13;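 note: cell viability readout measuring growth inhibition of human NB13 cells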
Description: SANGER: Inhibition of human NB13 cell growth in a cell viability assay.

AM-38 = type: functional, cell-based, Homo sapiens; conditions: Homo sapiens, AM-38;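 note: growth inhibition of AM-38 cells of human origin, read out by a cell viability assay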
Description: SANGER: Inhibition of human AM-38 cell growth in a cell viability assay.

DSH1 = type: functional, cell-based; conditions: Homo sapiens;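 note: growth inhibition of human DSH1 cells, measured with a cell viability readout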
Description: SANGER: Inhibition of human DSH1 cell growth in a cell viability assay.

ES1 = type: functional, cell-based, Homo sapiens; conditions: Homo sapiens, ES1
Description: SANGER: Inhibition of human ES1 cell growth in a cell viability assay.

KM12 = type: functional, cell-based, Homo sapiens; conditions: Homo sapiens, KM12;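 note: KM12 cell growth inhibition, read out with a cell viability assay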
Description: SANGER: Inhibition of human KM12 cell growth in a cell viability assay.

L-363 = type: functional, cell-based, Homo sapiens; conditions: Homo sapiens, L-363
Description: SANGER: Inhibition of human L-363 cell growth in a cell viability assay.

SHP77 = type: functional, cell-based, Homo sapiens, SHP-77; conditions: Homo sapiens, SHP77;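 note: growth inhibition of human SHP-77 cells measured by a cell viability assay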
Description: SANGER: Inhibition of human SHP-77 cell growth in a cell viability assay.

A253 cell line = type: functional, cell-based, Homo sapiens; conditions: Homo sapiens, A253;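 note: growth inhibition of A253 cells, read out with a cell viability assay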
Description: SANGER: Inhibition of human A253 cell growth in a cell viability assay.

SW684 = type: functional, cell-based, Homo sapiens; conditions: Homo sapiens, SW684; read-out: IC50;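 note: growth inhibition of human SW684 cells, measured by a cell viability assay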
Description: SANGER: Inhibition of human SW684 cell growth in a cell viability assay.

IST-MES1 = type: functional, cell-based, Homo sapiens; conditions: Homo sapiens, IST-MES1;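 note: growth inhibition of IST-MES1 cells, measured with a cell viability assay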
Description: SANGER: Inhibition of human IST-MES1 cell growth in a cell viability assay.

CCRF-CEM = type: functional, cell-based, Homo sapiens; conditions: Homo sapiens, CCRF-CEM;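 note: inhibition of CCRF-CEM cell growth, measured by a cell viability assay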
Description: SANGER: Inhibition of human CCRF-CEM cell growth in a cell viability assay.

EOL1 = type: functional, cell-based, Homo sapiens; conditions: Homo sapiens, EOL1;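 note: growth inhibition of EoL-1 cells, read out by a cell viability assay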
Description: SANGER: Inhibition of human EoL-1-cell cell growth in a cell viability assay.

O=S(=O)(O)c1ccc2cc(/N=N/c3cc(S(=O)(=O)O)c4cccnc4c3O)ccc2c1
IC50 (ES3): > 16 µM | IC50 (TE-5): > 16 µM | IC50 (SK-N-DZ): > 16 µM | IC50 (MLMA): > 16 µM | IC50 (HAL-01): > 16 µM | IC50 (SK-LMS-1): 9.45 µM | IC50 (MOLT-4): > 16 µM | IC50 (EW-18): > 16 µM | IC50 (GI-1): > 16 µM | IC50 (JAR): > 16 µM | IC50 (NCI-H226): > 16 µM | IC50 (SK-PN-DW): > 16 µM | IC50 (C2BBe1): > 16 µM | IC50 (TE-1): > 16 µM | IC50 (A101D): > 16 µM | IC50 (KG-1): > 16 µM | IC50 (ACN): > 16 µM | IC50 (SJSA-1): > 16 µM | IC50 (LS-513): > 16 µM | IC50 (MPP-89): > 16 µM | IC50 (HD-MY-Z): > 16 µM | IC50 (NCI-H23): > 16 µM | IC50 (LOX IMVI): > 16 µM | IC50 (RH-1): > 16 µM | IC50 (BE-13): > 16 µM | IC50 (QIMR-WIL): > 16 µM | IC50 (MFM-223): > 16 µM | IC50 (BV-173): > 16 µM | IC50 (IA-LM): > 16 µM | IC50 (MZ7-mel): > 16 µM | IC50 (NCI-H1838): > 16 µM | IC50 (NH-12): > 16 µM | IC50 (KE-37): > 16 µM | IC50 (LAMA-84): > 16 µM | IC50 (SW 962): > 16 µM | IC50 (KLE): > 16 µM | IC50 (SF-126): > 16 µM | IC50 (Lu-65): > 16 µM | IC50 (NB13): > 16 µM | IC50 (AM-38): > 16 µM | IC50 (DSH1): > 16 µM | IC50 (ES1): > 16 µM | IC50 (KM12): > 16 µM | IC50 (L-363): > 16 µM | IC50 (SHP77): > 16 µM | IC50 (A253 cell line): > 16 µM | IC50 (SW684): > 16 µM | IC50 (IST-MES1): > 16 µM | IC50 (CCRF-CEM): > 16 µM | IC50 (EOL1): > 16 µM

CCCCCCCCCCCC1=C(O)C(=O)C=C(O)C1=O [EMBELIN]
IC50 (ES3): 15.4 µM | IC50 (TE-5): 9.42 µM | IC50 (SK-N-DZ): > 32 µM | IC50 (MLMA): > 32 µM | IC50 (HAL-01): 25.8 µM | IC50 (SK-LMS-1): 5.64 µM | IC50 (MOLT-4): 10.6 µM | IC50 (EW-18): 10.5 µM | IC50 (GI-1): 3.76 µM | IC50 (JAR): > 32 µM | IC50 (NCI-H226): 17.9 µM | IC50 (SK-PN-DW): 30.6 µM | IC50 (C2BBe1): 13.9 µM | IC50 (TE-1): 21.6 µM | IC50 (A101D): 6.37 µM | IC50 (KG-1): > 32 µM | IC50 (ACN): 5.86 µM | IC50 (SJSA-1): 4.27 µM | IC50 (LS-513): > 32 µM | IC50 (MPP-89): 25.1 µM | IC50 (HD-MY-Z): 26.9 µM | IC50 (NCI-H23): > 32 µM | IC50 (LOX IMVI): 17.5 µM | IC50 (RH-1): 13.3 µM | IC50 (BE-13): 22.9 µM | IC50 (QIMR-WIL): 5.29 µM | IC50 (MFM-223): > 32 µM | IC50 (BV-173): > 32 µM | IC50 (IA-LM): 2.23 µM | IC50 (MZ7-mel): 9.78 µM | IC50 (NCI-H1838): > 32 µM | IC50 (NH-12): 3.88 µM | IC50 (KE-37): 3.44 µM | IC50 (LAMA-84): 18.5 µM | IC50 (SW 962): 7.77 µM | IC50 (KLE): 24 µM | IC50 (SF-126): 10.3 µM | IC50 (Lu-65): > 32 µM | IC50 (NB13): 16.7 µM | IC50 (AM-38): 12.5 µM | IC50 (DSH1): > 32 µM | IC50 (ES1): 7.81 µM | IC50 (KM12): 13.5 µM | IC50 (L-363): 24.1 µM | IC50 (SHP77): > 32 µM | IC50 (A253 cell line): 7.75 µM | IC50 (SW684): > 32 µM | IC50 (IST-MES1): > 32 µM | IC50 (CCRF-CEM): 3.02 µM | IC50 (EOL1): 6.73 µM

From ChEMBL document CHEMBL1201861, “Genomics of Drug Sensitity in Cancer screening data, Wellcome Trust Sanger Institute”
